Measurements: PubChem BioAssay (NCI)
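Dose response: 5 concentrations. Exposure: 48 h. Format: 96-well plates. Endpoint: linear interpolation; highest concentration if not reached. TGI: total growth inhibition.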

Experiments:
Assay in all cases: NCI-60 cell line screen, 48 h
[1] = tested on: 786-0 renal
[2] = tested on: A549 NSCLC
[3] = tested on: ACHN renal
[4] = tested on: BT-549 breast
[5] = tested on: CCRF-CEM leukemia
[6] = tested on: COLO 205 colon
[7] = tested on: DU-145 prostate
[8] = tested on: EKVX NSCLC
[9] = tested on: HCC-2998 colon
[10] = tested on: HCT-116 colon
[11] = tested on: HCT-15 colon
[12] = tested on: HOP-62 NSCLC
[13] = tested on: HOP-92 NSCLC
[14] = tested on: HS 578T breast
[15] = tested on: HT29 colon
[16] = tested on: IGROV1 ovarian
[17] = tested on: K-562 leukemia
[18] = tested on: KM12 colon
[19] = tested on: M14 melanoma
[20] = tested on: MALME-3M melanoma
[21] = tested on: MCF7 breast
[22] = tested on: MDA-MB-231 breast
[23] = tested on: MDA-MB-435
[24] = tested on: MDA-N
[25] = tested on: MOLT-4 leukemia
[26] = tested on: NCI-H226 lung
[27] = tested on: NCI-H23 lung
[28] = tested on: NCI-H460 lung
[29] = tested on: NCI-H522 lung
[30] = tested on: NCI/ADR-RES ovarian
[31] = tested on: OVCAR-3 ovarian
[32] = tested on: OVCAR-4 ovarian
[33] = tested on: OVCAR-5 ovarian
[34] = tested on: OVCAR-8 ovarian
[35] = tested on: PC-3 prostate
[36] = tested on: RPMI-8226 leukemia
[37] = tested on: RXF 393 renal
[38] = tested on: SF-268 CNS
[39] = tested on: SF-295 CNS
[40] = tested on: SF-539 CNS
[41] = tested on: SK-MEL-28 melanoma
[42] = tested on: SK-MEL-5 melanoma
[43] = tested on: SK-OV-3 ovarian
[44] = tested on: SN12C renal
[45] = tested on: SNB-19 CNS
[46] = tested on: SNB-75 CNS
[47] = tested on: SR leukemia
[48] = tested on: SW-620 colon
[49] = tested on: T-47D breast
[50] = tested on: U251 CNS
[51] = tested on: UACC-257 melanoma
[52] = tested on: UACC-62 melanoma
[53] = tested on: A498 renal
[54] = tested on: DMS 114 small cell lung
[55] = tested on: KM20L2 colon
[56] = tested on: LXFL 529 NSCLC
[57] = tested on: M19-MEL melanoma
[58] = tested on: SNB-78 CNS
[59] = tested on: UO-31 renal

CC(=O)NC1=C(NCCCl)C(=O)c2ccccc2C1=O
TGI [1]: > 100 µM
TGI [2]: > 100 µM
TGI [3]: > 100 µM
TGI [4]: > 100 µM
TGI [5]: 66 µM
TGI [6]: > 100 µM
TGI [7]: > 100 µM
TGI [8]: > 100 µM
TGI [9]: > 100 µM
TGI [10]: 48.1 µM
TGI [11]: > 100 µM
TGI [12]: > 100 µM
TGI [13]: > 100 µM
TGI [14]: > 100 µM
TGI [15]: 75.1 µM
TGI [16]: > 100 µM
TGI [17]: > 100 µM
TGI [18]: > 100 µM
TGI [19]: 27.7 µM
TGI [20]: 27.1 µM
TGI [21]: > 100 µM
TGI [22]: > 100 µM
TGI [23]: 31.1 µM
TGI [24]: 38.3 µM
TGI [25]: 75.5 µM
TGI [26]: > 100 µM
TGI [27]: 80.1 µM
TGI [28]: > 100 µM
TGI [29]: 59.3 µM
TGI [30]: 74 µM
TGI [31]: > 100 µM
TGI [32]: > 100 µM
TGI [33]: > 100 µM
TGI [34]: 52.4 µM
TGI [35]: 96.2 µM
TGI [36]: > 100 µM
TGI [37]: 69.8 µM
TGI [38]: > 100 µM
TGI [39]: > 100 µM
TGI [40]: > 100 µM
TGI [41]: > 100 µM
TGI [42]: 30.5 µM
TGI [43]: > 100 µM
TGI [44]: > 100 µM
TGI [45]: > 100 µM
TGI [46]: > 100 µM
TGI [47]: > 100 µM
TGI [48]: > 100 µM
TGI [49]: 84.1 µM
TGI [50]: > 100 µM
TGI [51]: 33.7 µM
TGI [52]: 42.9 µM

COc1ccc2c(c1)CC[C@@H]1C2CC[C@](C)(C#N)C1CC#N (stereo partly specified)
TGI [1]: > 100 µM
TGI [53]: > 100 µM
TGI [3]: > 100 µM
TGI [5]: > 100 µM
TGI [6]: > 100 µM
TGI [54]: > 100 µM
TGI [10]: > 100 µM
TGI [12]: > 100 µM
TGI [13]: > 100 µM
TGI [15]: > 100 µM
TGI [16]: > 100 µM
TGI [17]: > 100 µM
TGI [18]: > 100 µM
TGI [55]: > 100 µM
TGI [56]: > 100 µM
TGI [19]: > 100 µM
TGI [57]: > 100 µM
TGI [20]: > 100 µM
TGI [25]: > 100 µM
TGI [27]: > 100 µM
TGI [28]: > 100 µM
TGI [29]: > 100 µM
TGI [31]: > 100 µM
TGI [32]: > 100 µM
TGI [33]: > 100 µM
TGI [36]: > 100 µM
TGI [37]: > 100 µM
TGI [38]: > 100 µM
TGI [39]: > 100 µM
TGI [41]: > 100 µM
TGI [43]: > 100 µM
TGI [45]: > 100 µM
TGI [46]: > 100 µM
TGI [58]: > 100 µM
TGI [47]: > 100 µM
TGI [50]: > 100 µM
TGI [51]: > 100 µM
TGI [52]: > 100 µM
TGI [59]: > 100 µM
